In assay [1] the target is C-Raf kinase (SEQ. ID NO: 3) (Homo sapiens (Human), UniProt P04049, Y340D/Y341D). As to the kind of experiment: Biochemical Assay for C-Raf (1). To be noted: Table J. The gist of the method: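 IC50 values come from a four-parameter fit of percent inhibition, using the reaction rate over 4–5 h of a 6 h continuous 340 nm read at 30 °C. The enzyme mix was C-Raf 0.43 nM, MEK substrate 30.1 nM and ATP 1 mM, in a PK/LDH NADH-coupled format in Tris pH 7.5 with 1% DMSO.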

Assay [2] relates to A375 cells. In words: A375 Cell Proliferation Assay (1). The class given is cell-based. To be noted: Homo sapiens, A-375. The gist of the method: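 Resazurin fluorescence (excitation 540 nm, emission 600 nm, after a further 5-6 h) gave IC50s from triplicate compound dilution series.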
For assay [3], the system named is Miapaca-2 cells. As to the kind of experiment: MiaPaca-2 Cell Proliferation Assay (1). The class given is cell-based. The note with it: Homo sapiens, MIA PaCa-2, single agent, read-out: MiaPaca2 (1) IC50. In short, it runs like this: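 Resazurin was added after compound exposure and incubated 5-6 h, then fluorescence read at 540 nm excitation and 600 nm emission to give IC50.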

The test system of assay [4] is WM3928 cells. As to the kind of experiment: WM3928 Cell Proliferation Assay (1). The class given is cell-based. In short, it runs like this: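 IC50 was derived from resazurin fluorescence (ex 540, em 600 nm) after a 6–7 h dye incubation. Before that, cells had 67–72 h of compound exposure at 37 °C, 5% CO2.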
The mark [5] stands for this setting: assay version (1), read-out: CRAF (1) IC50.
[6] abbreviates: biochemical assay (1), read-out: CRAF (1).

Where two headings read alike, the source gives them in different places.

C-Raf kinase (SEQ. ID NO: 3), sequence (P04049 307-648 Y340D/Y341D): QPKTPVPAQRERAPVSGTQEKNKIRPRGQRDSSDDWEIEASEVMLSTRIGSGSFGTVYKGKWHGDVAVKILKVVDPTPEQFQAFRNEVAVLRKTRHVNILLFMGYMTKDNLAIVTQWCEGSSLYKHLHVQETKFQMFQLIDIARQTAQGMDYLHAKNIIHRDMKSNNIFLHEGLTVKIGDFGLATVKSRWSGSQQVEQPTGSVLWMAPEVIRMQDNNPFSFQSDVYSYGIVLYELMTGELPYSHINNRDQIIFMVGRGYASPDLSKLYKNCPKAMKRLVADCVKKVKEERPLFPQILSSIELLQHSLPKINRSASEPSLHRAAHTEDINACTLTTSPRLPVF

For `Cc1ccc(NC(=O)c2ccnc(C(F)(F)F)c2)cc1-c1ccnc(-c2ccnc(NC=O)c2)c1` [Example 46], the figures for the IC50 in assay [1] (setting [5]), in assay [2] and in assay [3] were ≤ 100 nM, 1000 to 10000 nM and 1000 to 10000 nM, respectively.
Turning to `Cc1cc(-c2cc(-c3cc(NC(=O)c4ccnc(C(C)(C)C#N)c4)ccc3C)ccn2)ccn1` [Example 49], the results for the IC50 in assay [1] (setting [5]), in assay [2] and in assay [3] were ≤ 100 nM, 500 to 1000 nM and 1000 to 10000 nM, respectively.
For the compound `Cc1ccc(NC(=O)[C@H]2CCO[C@H](C(C)C)C2)cc1-c1cc(-c2ccnc(NC(=O)C3CC3)c2)cnn1` [Example 389], the IC50 in assay [1] (setting [6]) was ≤ 100 nM; in assay [2], 1000 to 10000 nM; in assay [4], 500 to 1000 nM.
For `Cc1ncc(NC(=O)c2ccnc(C(C)(C)C#N)c2)cc1-c1cccc(-c2ncnn3cccc23)c1` [Example 385], the IC50 in assay [1] (setting [6]) lay in the range of 100 to 500 nM; in assay [2] it was 1000 to 10000 nM; in assay [4] it was 1000 to 10000 nM.
As to `Cc1cc(F)c(NC(=O)c2ccnc(C(C)(C)C#N)c2)cc1-c1ccnc(-c2ccnc(NC(=O)C3CC3)c2)c1` [Example 76], the IC50 is ≤ 100 nM in assay [1] (setting [5]), ≤ 100 nM in assay [2] and 1000 to 10000 nM in assay [3].
As for `Cc1ccc(NC(=O)c2cn(C(C)C)nc2C)cc1-c1cc(-c2ccnc(NC(=O)C3CC3)c2)cnn1` [Example 373], the IC50 in assay [1] (setting [6]) is ≤ 100 nM; in assay [2] it was 1000 to 10000 nM.
Regarding `Cc1ccc(NC(=O)c2ccnc(C(F)(F)F)c2)cc1-c1cncc(-c2ccnc(N)c2)n1` [Example 90], the IC50 is ≤ 100 nM in assay [1] (setting [5]), 1000 to 10000 nM in assay [2] and 1000 to 10000 nM in assay [3].
In the case of `CNC(=O)c1cc(-c2cccc(-c3cc(NC(=O)c4ccnc(C(F)(F)F)c4)cnc3C)c2)ccn1` [Example 73], the results for the IC50 in assay [1] (setting [5]), in assay [2] and in assay [3] were ≤ 100 nM, 1000 to 10000 nM and 1000 to 10000 nM, respectively.
Turning to `CNC(=O)c1cc(-c2cncc(-c3cc(NC(=O)c4ccnc(C(F)(F)F)c4)ccc3C)n2)ccn1` [Example 47], the IC50 was ≤ 100 nM in assay [1] (setting [5]), 1000 to 10000 nM in assay [2] and 1000 to 10000 nM in assay [3].
Take `CNC(=O)c1cc(-c2ccnc(-c3cc(NC(=O)CCC4(F)CC4)ccc3C)c2)ccn1` [Example 392]: the IC50 in assay [1] (setting [6]) was in the range of 100 to 500 nM; in assay [2] it was 1000 to 10000 nM; in assay [4] it was 1000 to 10000 nM.
Turning to `CC(=O)Nc1cc(-c2cc(-c3cc(NC(=O)c4ccnc(C(C)(C)C#N)c4)c(F)cc3C)ccn2)ccn1` [Example 75], the figures for the IC50 in assay [1] (setting [5]), in assay [2] and in assay [3] were ≤ 100 nM, ≤ 100 nM and 1000 to 10000 nM, respectively.
For the compound `COCC(=O)Nc1cc(-c2cccc(-c3cc(NC(=O)c4ccnc(C(F)(F)F)c4)ccc3C)c2)ccn1` [Example 57], the IC50 in assay [1] (setting [5]) is ≤ 100 nM; in assay [2], 100 to 500 nM; in assay [3], 1000 to 10000 nM.
Consider `Cc1cc(F)c(NC(=O)c2ccnc(C(F)(F)F)c2)cc1-c1ccnc(-c2ccnc(NC=O)c2)c1` [Example 35], for which the IC50 is ≤ 100 nM in assay [1] (setting [5]), 500 to 1000 nM in assay [2] and 1000 to 10000 nM in assay [3].
In the case of `CNC(=O)c1cc(-c2cc(-c3cc(NC(=O)c4ccnc(C)c4)ccc3C)ncn2)ccn1` [Example 60], the IC50 in assay [1] (setting [5]) is ≤ 100 nM; in assay [2], 1000 to 10000 nM; in assay [3] it was 1000 to 10000 nM.
`CC(=O)Nc1cc(-c2cc(-c3cc(NC(=O)c4ccnc(C(F)(F)F)c4)ccc3C)cc(OCCO)n2)ccn1` [Example 1, N-(3-(2′-acetamido-6-(2-hydroxyethoxy)-[2,4′-bipyridin]-4-yl)-4-methylphenyl)-2-(trifluoromethyl)isonicotinamide]: the IC50 in assay [1] (setting [5]) is ≤ 100 nM; in assay [2], ≤ 100 nM; in assay [3] it was 100 to 500 nM.
Take `CNC(=O)c1cc(-c2cncc(-c3cc(NC(=O)c4cnn(CC(F)(F)F)c4)ccc3C)c2)ncn1` [Example 382]: the IC50 in assay [1] (setting [6]) is ≤ 100 nM; in assay [2] it was 1000 to 10000 nM.
For the compound `COCC(=O)Nc1cc(-c2cc(-c3cc(NC(=O)c4ccnc(C(C)(C)C#N)c4)ccc3C)ccn2)ccn1` [Example 61], the values for the IC50 in assay [1] (setting [5]), in assay [2] and in assay [3] were ≤ 100 nM, ≤ 100 nM and 1000 to 10000 nM, respectively.
On to `CNC(=O)c1cc(-c2cnnc(-c3cc(NC(=O)CCC4(F)CC4)cnc3C)c2)ccn1` [Example 374], for which the IC50 in assay [1] (setting [6]) and in assay [2] was 1000 to 10000 nM in each case.
Turning to `CNC(=O)c1cc(-c2cncc(-c3cc(C(=O)Nc4cnn(C(C)C)c4)ccc3C)n2)ccn1` [Example 81], the IC50 is 100 to 500 nM in assay [1] (setting [5]) and 1000 to 10000 nM in assay [2].
Regarding `COC(=O)Nc1cc(-c2cc(-c3cc(NC(=O)c4ccnc(C(C)(C)F)c4)c(F)cc3C)cc(C)n2)ccn1` [Example 386], the values for the IC50 in assay [1] (setting [6]), in assay [2] and in assay [4] were ≤ 100 nM, 100 to 500 nM and 100 to 500 nM, respectively.
In the case of `CC(=O)Nc1cc(-c2cc(-c3cc(NC(=O)c4ccnc(C(F)(F)F)c4)ccc3C)nc(C)n2)ccn1` [Example 83], the figures for the IC50 in assay [1] (setting [5]), in assay [2] and in assay [3] were ≤ 100 nM, 100 to 500 nM and 1000 to 10000 nM, respectively.
As for `CNC(=O)c1cc(-c2ccnc(-c3cc(NC(=O)c4ccnc(C(C)(C)F)c4)ccc3C)c2)ccn1` [Example 378], the IC50 in assay [1] (setting [6]) was ≤ 100 nM; in assay [2], ≤ 100 nM; in assay [4] it was 100 to 500 nM.
Consider `COC(=O)Nc1cc(-c2cccc(-c3cc(NC(=O)c4ccnc(C(C)(C)F)c4)cnc3C)c2)ccn1` [Example 402], for which the IC50 was ≤ 100 nM in assay [1] (setting [6]), 100 to 500 nM in assay [2] and 100 to 500 nM in assay [4].
For the compound `CC(=O)Nc1cc(-c2cccc(-c3cc(NC(=O)c4ccnc(C(C)(C)C#N)c4)ccc3C)c2)ncn1` [Example 79], the IC50 was ≤ 100 nM in assay [1] (setting [5]), ≤ 100 nM in assay [2] and 1000 to 10000 nM in assay [3].
For the compound `Cc1ccc(NC(=O)c2ccnc(C(F)(F)F)c2)cc1-c1ccnc(-c2ccnc(NC(=O)CC#N)c2)c1` [Example 39, N-(3-(2′-(2-cyanoacetamido)-[2,4′-bipyridin]-4-yl)-4-methylphenyl)-2-(trifluoromethyl)isonicotinamide], the IC50 in assay [1] (setting [5]) is ≤ 100 nM; in assay [2], 500 to 1000 nM; in assay [3], 1000 to 10000 nM.
The matching figures for `CC(=O)Nc1cc(-c2cc(-c3cc(NC(=O)c4ccnc(C(F)(F)F)c4)ccc3F)cc(C)n2)ccn1` [Example 65]: ≤ 100 nM, 500 to 1000 nM and 1000 to 10000 nM.
For the compound `CC(=O)Nc1cc(-c2cc(-c3cc(NC(=O)c4cccc(C)c4)ccc3C)ccn2)ccn1` [Example 32], the IC50 in assay [1] (setting [5]) was ≤ 100 nM; in assay [2] it was 500 to 1000 nM; in assay [3] it was 1000 to 10000 nM.
Take `CC(=O)Nc1cc(-c2cc(-c3cc(NC(=O)c4ccnc(C)c4)ccc3C)ncn2)ccn1` [Example 59]: the figures for the IC50 in assay [1] (setting [5]), in assay [2] and in assay [3] were ≤ 100 nM, 1000 to 10000 nM and 1000 to 10000 nM, respectively.
On to `CNC(=O)c1cc(-c2cncc(-c3cc(NC(=O)Cn4cc(C(C)C)nn4)ccc3C)c2)ncn1` [Example 383], for which the values for the IC50 in assay [1] (setting [6]) and in assay [2] were 100 to 500 nM and 1000 to 10000 nM, respectively.
Regarding `CNC(=O)c1cc(-c2cc(-c3cc(NC(=O)c4ccnc(C)c4)ccc3C)ccn2)ccn1` [Example 40], the IC50 is ≤ 100 nM in assay [1] (setting [5]), 1000 to 10000 nM in assay [2] and 1000 to 10000 nM in assay [3].
On to `CC(=O)Nc1cc(-c2cc(-c3cc(NC(=O)c4ccnc(C(F)(F)F)c4)ccc3C)ncn2)ccn1` [Example 84], for which the IC50 in assay [1] (setting [5]) is ≤ 100 nM; in assay [2], 100 to 500 nM; in assay [3], 1000 to 10000 nM.
For `Cc1ncc(NC(=O)c2ccnc(C(F)(F)F)c2)cc1-c1cccc(-c2ccnc(NC(=O)C3CC3)c2)c1` [Example 70] the same measures were ≤ 100 nM, 100 to 500 nM and 1000 to 10000 nM.
The matching figures for `CC(=O)Nc1cc(-c2cccc(-c3cc(NC(=O)c4ccnc(C(F)(F)F)c4)cnc3C)c2)ccn1` [Example 64]: ≤ 100 nM, 100 to 500 nM and 1000 to 10000 nM.
The matching figures for `Cc1ccc(NC(=O)c2ccnc(C(F)(F)F)c2)cc1-c1cccc(-c2ccnc(NC(=O)CC#N)c2)c1` [Example 62]: ≤ 100 nM, 100 to 500 nM and 1000 to 10000 nM.
As for `CC(=O)Nc1cc(-c2ccnc(-c3cc(NC(=O)c4ccnc(C(F)(F)F)c4)ccc3C)n2)ccn1` [Example 92], the IC50 in assay [1] (setting [5]) is ≤ 100 nM; in assay [2] it was 100 to 500 nM; in assay [3] it was 1000 to 10000 nM.
The matching figures for `CC(=O)Nc1cc(-c2cc(-c3cc(NC(=O)c4ccnc(C(F)(F)F)c4)cnc3C)ccn2)ccn1` [Example 36]: ≤ 100 nM, 500 to 1000 nM and 1000 to 10000 nM.
The matching figures for `CC(=O)Nc1cc(-c2cc(-c3cc(NC(=O)c4ccnc(C(F)(F)F)c4)c(F)cc3C)ccn2)ccn1` [Example 2]: ≤ 100 nM, 100 to 500 nM and 1000 to 10000 nM.
`CC(=O)Nc1cc(-c2cc(-c3cc(NC(=O)c4cccc(C(F)(F)F)c4)cnc3C)ccn2)ccn1` [Example 37]: the IC50 was ≤ 100 nM in assay [1] (setting [5]), ≤ 100 nM in assay [2] and 1000 to 10000 nM in assay [3].
Turning to `CC(=O)Nc1cc(-c2cncc(-c3cc(C(=O)Nc4cnn(C(C)C)c4)ccc3C)n2)ccn1` [Example 87], the IC50 in assay [1] (setting [5]) is ≤ 100 nM; in assay [2], 500 to 1000 nM; in assay [3], 1000 to 10000 nM.
As for `Cc1ccc(NC(=O)c2cnn(CC(F)(F)F)c2)cc1-c1cncc(-c2ccnc(C(N)=O)c2)c1` [Example 381], the IC50 in assay [1] (setting [6]) is ≤ 100 nM; in assay [2] it was 1000 to 10000 nM.

The values above are taken from patent US12319655B2, “RAF kinase inhibitors and methods of use thereof” (Deciphera Pharmaceuticals, LLC, priority 2021, dated 2025).
